Source: US20070225363A1, “Methods and Agents for Inhibiting Dynamin-Dependent Endocytosis” (the University of Newcastle Research Associates Ltd., priority 2003, published 2007)

Test system: isolated nerve terminals (synaptosomes)
Assay: Glutamate release assay (exocytosis) in synaptosomes
Type: cell-based, rat
Settings: 30 mM KCl
Protocol: The glutamate release assay was performed using enzyme-linked fluorescent detection of released glutamate (Cousin and Robinson., 2000a, b). Briefly, synaptosomes (0.6 mg in 2 ml) were resuspended in either plus (1.2 mM CaCl2) or minus (1 mM EGTA) Ca^2+ Krebs-like solution (118.5 mM NaCl, 4.7 mM KCl, 1.18 mM MgCl2, 0.1 mM Na2HPO4, 20 mM Hepes, 10 mM glucose, pH 7.4) at 37° C. Experiments were started after addition of 1 mM NADP^+. After 1 minute 50 U of glutamate dehydrogenase was added and the synaptosome suspension was stimulated after 4 minutes with 30 mM KCl. Increases in fluorescence due to production of NADPH were monitored in a Perkin-Elmer LS-50B spectrofluorimeter at 340 nm excitation and 460 nm emission. Experiments were standardised by the addition of 4 nmol of glutamate. Data is presented as Ca^2+-dependent glutamate release, calculated as the difference between release in plus and minus Ca^2+ solution for identical stimulation conditions.

## N#C/C(=C\c1ccc(O)c(O)c1)C(=O)NCCCNC(=O)/C(C#N)=C/c1ccc(O)c(O)c1 [bis-tyrphostin]
  exocytosis (Ca2+-dependent glutamate release): no effect
